Results as given in patent US20220387472A1, “COMPOSITIONS AND METHODS FOR TREATING CANCER” (AIM ImmunoTech Inc., priority 2020, published 2022).
“And” between values parts separate entries of the source, which are not always exact repeats. Equal entries are not always repeated. Where two headings read alike, the source gives them in different places.

Tests used:
[1] = tested on: Pancreatic Adenocarcinoma; conditions: cited from earlier work
[2] = tested on: metastatic or locally advanced pancreatic carcinoma; test: Survival of pancreatic cancer patients given […] following FOLFIRINOX vs matched historical control group; format: in vivo, human; conditions: n = 27 per group, from start of FOLFIRINOX, control: FOLFIRINOX only (historical); for Median Overall Survival: AMPLIGEN i.v. 200 mg twice weekly for 2 weeks, then 400 mg twice weekly, 18 weeks total, following FOLFIRINOX
Experimental: In this case, the tdsRNA used is rintatolimod ([…]®) which is a form of tdsRNA. Included in the study were adults with metastatic or locally advanced pancreatic carcinoma following FOLFIRINOX treatment. The tdsRNA treatment was rintatolimod ([…]®) administered i.v. 200 mg twice weekly for 2 weeks, then 400 mg twice weekly for a total treatment duration of 18 weeks.
The experiment compared survival in the experimental […]® cohort (n=27) compared to a historical control group (n=27) matched for age, gender, disease stage and number of cycles of FOLFIRINOX.
To be selected for the study, the patient should be over 18 years in age and diagnosed with locally advanced pancreatic cancer (LAPC) or metastasized pancreatic cancer. These LACP patients were not candidates for surgical resection. The patient should have completed the standard of care (e.g., A FOLFIRINOX regimen) and the patient should have no progressive disease (as detected by computed tomography (CT) 6 weeks after treatment). Patients with second malignancy (simultaneous), on immunosuppressive medication, or having liver-renal insufficiency were excluded.
Survival analysis was performed as follows. A group of 136 patients was assembled from a retrospective database, including all patients who received FOLFIRINOX between 2012-2018. Variables that were matched include age (+ or −10 years); gender; disease stage (locally advanced pancreatic cancer (LAPC), metastasized, metastasized after resection); and the number of FOLFIRINOX cycles to obtain a historical control group that was well-matched to the experimental group. The outcomes were determined from the start of FOLFIRINOX, and the overall survival and progression-free survival were calculated.

[3] = Clinical safety and tolerability of tdsRNA (rintatolimod); format: in vivo, human; conditions: for Tolerability: twice weekly infusions
Source text: tdsRNA (e.g., Rintatolimod) has undergone extensive clinical and preclinical testing. […] Favorable safety profiles have been seen for intraperitoneal, intravenous, and intranasal routes of administration of tdsRNA.
Our analysis and previous studies have shown that […]® has a very good safety profile. […]® lacks the potent toxicities seen with most chemotherapeutic agents. See, e.g., […]®'s safety profile in other parts of this disclosure. […] Thus, we believe the ideal use of […]® would be to continue therapy beyond 18 weeks until time of tumor progression. We believe this approach could add an additional 4 to 6 months or more to the overall survival (OS) benefit.

[4] = cynomolgus monkey, in vivo, 6 mg/kg
Experimental: (§1) Ampligen® has undergone extensive preclinical safety testing including 18 animal (mice, rat, rabbit, dog, and monkey) toxicity studies; 6 animal (rat and rabbit) reproductive studies, and 2 animal (rat, monkey) PK/PD studies. The MTD for humans and NHPs is >10 mg/kg and >36 mg/kg, respectively.

[5] = set-up: species or system Humans; conditions: human, in vivo, 6 mg/kg
Experimental: as §1

[6] = Maximum tolerated dose (MTD) in NHP; format: in vivo; conditions: NHP (Cynomolgus monkey)
Experimental: as §1

[7] = Maximum tolerated dose (MTD) in humans; format: in vivo
Experimental: as §1

[8] = clinical trials enrolling over 1,200 patients, over 100,000 doses

## O=C(c1cc(Cc2n[nH]c(=O)c3ccccc23)ccc1F)N1CCN(C(=O)C2CC2)CC1 [Lynparza]
[1]; Second-Line Therapy, median OS over the control arm
  OS Over Control: 3.6 months

## Nc1ccn([C@@H]2O[C@H](CO)[C@@H](O)C2(F)F)c(=O)n1 [gemcitabine]
[1]; First-Line Therapy, median overall survival
  OS Months: 6.7 Months and 6.0 Months and 6.8 Months

## rIn.r(C12U)n
[2]; AMPLIGEN following FOLFIRINOX
  Median Progression-free Survival: 12.0 months
[2]
  Median Overall Survival: 19.0 months and 19 months
[2]; listed as Ampligen
  Median Overall Survival: 19 months
[3]; [8]
  Drug-related deaths: no drug-related deaths
  Tolerability: generally well-tolerated
[3]; clinical trials enrolling over 1,200 patients, over 100,000 doses, listed as Ampligen
  Tolerability: generally well-tolerated
[3]; clinical trials enrolling over 1,200 patients, over 100,000 doses, listed as Rintatolimod
  Tolerability: well-tolerated
[3]; human, in vivo
  Cumulative toxicities: no evidence of any cumulative toxicities
[3]; two placebo-controlled, randomized studies
  Serious adverse events compared to placebo: no increase in serious adverse events compared to placebo
[4]
  Half-Life: 22.9 min
[5]
  Half-Life: 36.5 min
[6]; based on 4 weeks
  MTD: 100 mg/kg
[6]; based on 24 weeks
  MTD: > 36 mg/kg
[7]; based on 1200 mg BIW (cancer)
  MTD: 17 mg/kg
[7]; based on randomized, well-controlled 24 week study in HIV disease
  MTD: > 10 mg/kg
